SMILES strings stand for the structures. Calls of active or inactive are those of the source. The rule behind the calls is not given here.

Data set [1] can be described thus: Cytotoxicity against human cystinotic Fibroblast at 50 uM for 72 hrs by Alamar blue assay. Format: cell-based. A general note: Resazurin is reduced to fluorescent resorufin, in cell work by metabolically active cells.
For data set [2], the system named is Fibroblast. Briefly: Decrease in intracellular cystine level in human cystinotic Fibroblast at 50 uM for 24 hrs by thiol assay. It is filed as functional, cell-based.

Turning to `Cl.NCCSSCCNC(=O)CC[C@H](NC(=O)c1ccc(NCc2cnc3nc(N)nc(O)c3n2)cc1)C(=O)NCCSSCCN`, in data set [1], the Activity entry is given as “Non-toxic”. The result in data set [2] was Active. For `NCCS` [CYSTEAMINE], the Activity entry in data set [1] is “Non-toxic”.

These data come from ChEMBL document CHEMBL1759868, “Folate pro-drug of cystamine as an enhanced treatment for nephropathic cystinosis” (Bioorg Med Chem Lett, 2011).
